Source: patent US8227620B2, “Pharmaceutical compounds” (Neuroscienze Pharmaness S.C. A.R.L., priority 2004, dated 2012)

Tests used:
[1] = target: T1, CB1 receptors (Rattus norvegicus, UniProt P20272); assay: Hypothermia test in vivo, compound alone (rectal temperature); set-up: from tissue; host or cells: whole animal (rat), central CB1 receptors of the hypothalamus; details: i.p., doses 0.1, 0.5, 1.0, 3.0, 6.0 mg/kg, versus physiological solution (38° C.)
Procedure: The test was carried out with the compound of the Example 3.1c. Aqueous samples were used wherein the compound of the Example 3.1c was dispersed in water with three drops of Tween 80. Following the above procedure, treatments were carried out with doses (mg compound/kg of body weight) respectively of 0.1; 0.5; 1.0; 3.0; 6.0.

[2] = target: T2, CB2 receptors (Rattus norvegicus, UniProt Q9QZN9); assay: Radioreceptor binding, [3H]-CP-55,940 displacement, rat spleen membranes; details: 1 nM [3H]-CP55,940
T2 construct: the brain in toto (cerebellum excluded) and the spleen were rapidely dissected; from tissue; host or cells: rat spleen membranes
T2 sequence (Q9QZN9 1-360): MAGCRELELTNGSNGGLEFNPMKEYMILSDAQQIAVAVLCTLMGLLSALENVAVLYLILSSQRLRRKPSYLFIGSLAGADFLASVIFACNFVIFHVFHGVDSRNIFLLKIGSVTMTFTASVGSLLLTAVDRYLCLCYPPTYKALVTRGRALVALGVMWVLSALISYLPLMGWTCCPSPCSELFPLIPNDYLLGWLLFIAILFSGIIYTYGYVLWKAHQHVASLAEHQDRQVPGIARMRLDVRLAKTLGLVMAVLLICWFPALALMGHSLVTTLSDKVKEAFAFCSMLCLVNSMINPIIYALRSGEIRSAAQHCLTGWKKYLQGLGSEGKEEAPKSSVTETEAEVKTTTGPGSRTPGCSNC
Description: (§1) The receptorial binding technique allows indeed to establish if and with what affinity and specificity a determined compound binds itself to a particular receptor. To evaluate the affinity of a determined compound towards a particular receptor, a particular preparation of the tissue wherein the receptors are present is used and the tested compound is made to compete with another compound, treated so as to make it radioactive and of which the affinity for the receptor is known. […] The reading of the radioactivity present in the receptor-compound complex allows furthermore to precisely calculate the compound amount bound to the receptor. By this method it is therefore possible to rapidely identify the affinity of a new compound towards a specific receptor and thus to make predictions on its pharmacological activity. By repeating the same experimental scheme it is possible to evaluate the affinity of the compound towards other kinds of receptors and thus establish the specificity degree.
(§2) Food and water were available ad libitum.
(§3) The animals were sacrificed by cervical dislocation, the brain in toto (cerebellum excluded) and the spleen were rapidely dissected and maintained in ice.
(§4) The tissue was homogenized in 15 volumes (weight/volume) of TME buffer (50 mM Tris, 1 mM EDTA e 3 mM MgCl2, pH 7.4) by an Ultra-Turrax and centrifuged for 10 minutes at 1086×g in a centrifuge cooled at 4° C. The resulting supernatant was centrifuged at 45,000×g for 30 min at 4° C. by using a Beckman SW41 rotor and the final pellet was resuspended in 50 volumes of TME.
(§5) The obtained membranes (50-80 μg of proteins) were incubated in the presence of 1 nM di [^3H]-CP55,940 for 1 h at 30° C. in a final volume of 0.5 ml of TME buffer containing 5 mg/ml of bovine serum albumin (BSA). The non specific binding was measured in the presence of CP55,940 at the 1 μM concentration. […]
(§6) The radioactivity present in the filters was measured by a scintillator spectrophotometer (Tricarb 2100, Packard, Meridien, USA). […]

[3] = target: T1, CB1 receptors; assay: Radioreceptor binding, [3H]-CP-55,940 displacement, rat brain membranes; set-up: from tissue; host or cells: whole animal (rat), central CB1 receptors of the hypothalamus; details: 1 nM [3H]-CP55,940
Description: as §1, §2, §3, §4, §5, §6

T1 sequence (P20272 whole entry): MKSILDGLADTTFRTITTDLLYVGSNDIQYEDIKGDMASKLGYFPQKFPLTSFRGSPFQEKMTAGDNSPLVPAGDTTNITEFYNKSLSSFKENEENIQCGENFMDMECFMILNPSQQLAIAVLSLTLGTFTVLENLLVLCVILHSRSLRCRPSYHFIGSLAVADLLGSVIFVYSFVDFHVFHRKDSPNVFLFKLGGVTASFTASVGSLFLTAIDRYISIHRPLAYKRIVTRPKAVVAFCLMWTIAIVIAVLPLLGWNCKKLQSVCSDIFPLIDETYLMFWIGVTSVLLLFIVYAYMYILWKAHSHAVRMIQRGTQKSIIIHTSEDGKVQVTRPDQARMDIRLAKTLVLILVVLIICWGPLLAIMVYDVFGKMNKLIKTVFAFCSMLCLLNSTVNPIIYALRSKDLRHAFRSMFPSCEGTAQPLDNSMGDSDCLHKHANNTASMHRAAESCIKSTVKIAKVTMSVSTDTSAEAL

| SMILES | effect of the compound as such on body temperature [1] | Ki [2] | Ki [3] | melting point |
| --- | --- | --- | --- | --- |
| Cc1c(C(=O)NN2CCCCCC2)nn(-c2ccc(Cl)cc2Cl)c1-c1ccc(Cl)s1 [Example 3.1c, N-homopiperidinyl-5-(5-Chloro-thiophen-2-yl)-1-(2′,4′-dichloro-phenyl)-4-methyl-1H-pyrazol-3-carboxamide] | In none of the examined cases there was a reduction of the body temperature | 270 ± 5 nM | 21 ± 1 nM |  |
| Cc1c(C(=O)Nc2ccccc2)nn(-c2ccc(Cl)cc2Cl)c1-c1ccc(Cl)s1 |  |  |  | 175 to 176 °C |
